One series has as its system PANC-1 cells. Nature of the series: MTT cell activity assay (inhibitory activity against PANC-1 cells). In kind it is cell-based. As to the method:
A total of 3000 PANC-1 cells were resuspended in 200 μL of culture medium and seeded into 96-well plates. After 24 h, the cells were treated with the compound and incubated for an additional 72 h. Following the incubation, 20 μL of 5 mg/mL MTT solution (Solarbio, China) was added to each well in the dark, and the cells were incubated for another 4 h. After incubation, the culture medium was discarded, and the wells were washed with PBS to remove any residual medium. Then, 200 μL of DMSO was added to each well to fully dissolve the formazan crystals, and the solution was mixed thoroughly. The absorbance was measured at 492 nm/570 nm, and the data were analyzed using GraphPad Prism.

Series [1] is described as follows: Preliminary water solubility test. In kind it is physicochemical. Conditions: thermodynamic from solid, 25 °C, ultrasonic treatment 30 min, visual.
For the next series, the system named is PANC-1 xenograft tumor. As to the method:
Furthermore, a xenografted murine subcutaneous tumor model was employed to evaluate the effects of majusculamide D and the optimized analogues 1c and 1n (Figure 1B). PANC1-bearing BALB/c nude mice were separated randomly, with a total of six mice in each group. Gemcitabine was chosen as the positive drug; the mice were then administered intravenous doses of 1c (5 mg/kg), 1n (5 mg/kg), 1a (5 mg/kg), and gemcitabine (20 mg/kg) every other day for 24 days.
A total of 4 × 10^6 PANC-1 cells suspended in 100 μL PBS were subcutaneously injected into the right shoulder region of BALB/c nude mice. When the tumor volume reached approximately 200 mm^3, the mice were euthanized, and the tumor tissues were harvested and designated as F1 generation. Tumor tissues were then cut into small cubes measuring approximately 3 × 3 × 3 mm, which were implanted into new BALB/c mice to propagate the tumors. This procedure was repeated to obtain the F2 generation of tumors. Finally, mice bearing F3 generation transplant tumors were used for drug treatment experiments. When the tumor volume reached approximately 80–100 mm^3, the mice were randomly divided into five groups (n = 6): control group, 5 mg/kg compound 1a group, 5 mg/kg compound 1c group, 5 mg/kg compound 1n group, and 20 mg/kg gemcitabine group. The compounds 1a, 1c, and 1n were dissolved in DMSO and then diluted with 0.9% physiological saline to achieve a final concentration of 0.5 mg/mL as the dosing concentration. Gemcitabine was dissolved directly in 0.9% saline to achieve a final concentration of 2 mg/mL as the dosing concentration. The compounds were administered intravenously every two days, alternating between the left and right tail veins to minimize vein damage. Injections were performed using ultra-fine syringes (30G needles) to reduce stress and ensure consistent delivery. The body weight and tumor volume of the mice were measured every four days. On day 24, the mice were euthanized, and the tumor weights were recorded. Tumor volume (V) was calculated using the formula: V = (ab^2)/2, with “a” representing the long diameter of the tumor and “b” representing the short diameter of the tumor. […] Tumor weight was used to calculate the tumor inhibition rate (Figure 1G).

Setting [2] is: Homo sapiens, PANC-1, 72 h, read-out: IC50 (nM), inhibitory activity against PANC-1 cells (Table 1), PANC-1 cells, 72 h incubation, mean ± SD, n = 3.
Setting [3] is: Homo sapiens, PANC-1 cells, 72 h incubation, mean ± SD, n = 3, read-out: IC50 (nM), inhibitory activity against PANC-1 cells (Table 1).
The mark [4] stands for this setting: read-out: IC50 (nM), inhibitory activity against PANC-1 cells (Table 1), PANC-1 cells, 72 h incubation, mean ± SD, n = 3.
[5] abbreviates: Homo sapiens, PANC-1 cells, 72 h incubation, mean ± SD, n = 3, Table 2 series, read-out: IC50 (nM), inhibitory activity against PANC-1 cells (Table 2).

Values after ≈ are worked out from the molar mass of the structure shown. Like-named read-outs stand apart in the source and are kept apart here.

Turning to `CCCCC(C)CC(C)C(=O)N(C)C(Cc1ccc(OC)cc1)C(=O)NC(COC(C)=O)C(=O)N(C)C(C(=O)N1CC(O)CC1C(=O)N1C(=O)C=CC1C)C(C)C` (stereo not shown) [Compound 1d], the IC50 with PANC-1 cells (setting [2]) was found to be 2.15 ± 0.37 nM.

With `CCCCC(C)CC(C)C(=O)N(C)C(Cc1ccc(OC)cc1)C(=O)NC(C(=O)N(C)C(C(=O)N1CC(O)CC1C(=O)N1C(=O)C=CC1C)C(C)C)C(C)NC(C)=O` (stereo not shown) [Compound 1e], in the series on PANC-1 cells (setting [3]), the IC50 stood at 2.94 ± 0.93 nM.

Regarding `CCCCC(C)CC(C)C(=O)N(C)C(Cc1ccccc1)C(=O)NC(C(=O)N(C)C(C(=O)N1CC(O)CC1C(=O)N1C(=O)C=CC1C)C(C)C)C(C)OC(C)=O` (stereo not shown) [Compound 1h], the IC50 with PANC-1 cells (setting [2]) turned out to be 72 ± 21.9 nM.

Regarding `CCCCC(C)CC(C)C(=O)N(C)C(Cc1ccc(-c2ccccc2)cc1)C(=O)NC(C(=O)N(C)C(C(=O)N1CC(O)CC1C(=O)N1C(=O)C=CC1C)C(C)C)C(C)OC(C)=O` (stereo not shown) [Compound 1j], the IC50 in the series on PANC-1 cells (setting [2]) is < 1 nM; with PANC-1 cells (setting [4]), 0.7 ± 0.07 nM.

For the compound `CCCCC(C)CC(C)C(=O)N(C)C(Cc1ccc(OC)cc1)C(=O)NC(C(=O)N(C)C(C(=O)N1CC(F)CC1C(=O)N1C(=O)C=CC1C)C(C)C)C(C)OC(C)=O` (stereo not shown) [Compound 1k], the IC50 with PANC-1 cells (setting [2]) is 2.55 ± 0.55 nM.

For the compound `CCCCC(C)CC(C)C(=O)N(C)C(Cc1ccc(OC)cc1)C(=O)NC(C(=O)N(C)C(C(=O)N1CC(O)CC1C(=O)N1CC=CC1=O)C(C)C)C(C)OC(C)=O` (stereo not shown) [Compound 1l], the IC50 in the series on PANC-1 cells (setting [2]) amounted to 134 ± 78.2 nM.

As for `CCCCC(C)CC(C)C(=O)N(C)C(Cc1ccc(OC)cc1)C(=O)NC(C(=O)N(C)C(C(=O)N1CC(O)CC1C(=O)N1C(=O)C=CC1C)C(C)C)C(C)OC(C)=O` (stereo not shown) [Compound 1m], the concentration for half-maximal inhibition (IC50) in the series with PANC-1 cells (setting [4]) amounted to 4.68 ± 0.59 nM.

Turning to `CCCCC(C)CC(C)C(=O)N(C)C(Cc1ccc(OC)cc1)C(=O)NC(C(=O)N(C)C(C(=O)N1CC(O)CC1C(=O)N1C(=O)C=CC1C)C(C)C)C(C)O` (stereo not shown) [Compound 14a], the IC50 with PANC-1 cells (setting [2]) turned out to be 1160 ± 195 nM.

As for `CCCCC(C)CC(C)C(=O)N(C)C(Cc1ccc(OC)cc1)C(=O)NC(C(=O)N(C)C(C(=O)N1CC(O)CC1C(=O)N1C(=O)C=CC1C)C(C)C)C(C)NC(=S)NC` (stereo not shown) [Compound 14b], the IC50 in the series on PANC-1 cells (setting [3]) was 1.06 ± 0.35 nM.

`CCCCC(C)CC(C)C(=O)N(C)C(Cc1ccc(O)cc1)C(=O)NC(C(=O)N(C)C(C(=O)N1CC(O)CC1C(=O)N1C(=O)C=CC1C)C(C)C)C(C)OC(C)=O` (stereo not shown) [Compound 14c]: the IC50 with PANC-1 cells (setting [2]) was found to be 5.31 ± 1.46 nM.

As for `CCCC[C@@H](C)C[C@@H](C)C(=O)N(C)[C@@H](Cc1ccc(OC)cc1)C(=O)N[C@H](C(=O)N(C)[C@H](C(=O)N1C[C@@H](O)C[C@H]1C(=O)N1C(=O)C=C[C@@H]1C)C(C)C)[C@@H](C)NC(=O)[C@@H]1CCCN1` [Compound 16a], the IC50 with PANC-1 cells (setting [5]) was 40.8 ± 14.1 nM. The same compound returned a solubility in series [1] of 210 µg/mL (≈ 242 µM).

For `CCCC[C@@H](C)C[C@@H](C)C(=O)N(C)[C@@H](Cc1ccc(OC)cc1)C(=O)N[C@H](C(=O)N(C)[C@H](C(=O)N1C[C@@H](O)C[C@H]1C(=O)N1C(=O)C=C[C@@H]1C)C(C)C)[C@@H](C)NC(=O)[C@@H](N)[C@@H](C)O` [Compound 16b], the IC50 in the series with PANC-1 cells (setting [5]) was 116 ± 54 nM. Further, the concentration in solution in series [1] (solubility) was 410 µg/mL (≈ 471 µM).

`CCCC[C@@H](C)C[C@@H](C)C(=O)N(C)[C@@H](Cc1ccc(OC)cc1)C(=O)N[C@H](C(=O)N(C)[C@H](C(=O)N1C[C@@H](O)C[C@H]1C(=O)N1C(=O)C=C[C@@H]1C)C(C)C)[C@@H](C)NC(=O)[C@@H](N)Cc1c[nH]c2ccccc12` [Compound 16c]: the IC50 in the series with PANC-1 cells (setting [5]) is 34.4 ± 4.5 nM. In series [1], this compound came in with a solubility of 200 µg/mL (≈ 209 µM).

On to `CCCC[C@@H](C)C[C@@H](C)C(=O)N(C)[C@@H](Cc1ccc(OC)cc1)C(=O)N[C@H](C(=O)N(C)[C@H](C(=O)N1C[C@@H](O)C[C@H]1C(=O)N1C(=O)C=C[C@@H]1C)C(C)C)[C@@H](C)NC(=O)CNC` [Compound 16d], for which the IC50 in the series with PANC-1 cells (setting [5]) came out at 16.2 ± 6.72 nM. For the same compound, the solubility in series [1] worked out at 810 µg/mL (≈ 964 µM).

In the case of `CCCC[C@@H](C)C[C@@H](C)C(=O)N(C)[C@@H](Cc1ccc(OC)cc1)C(=O)N[C@H](C(=O)N(C)[C@H](C(=O)N1C[C@@H](O)C[C@H]1C(=O)N1C(=O)C=C[C@@H]1C)C(C)C)[C@@H](C)NC(=O)[C@@H](N)CC(C)C` [Compound 16e], the IC50 in the series with PANC-1 cells (setting [5]) is 34.2 ± 6.36 nM. Moreover, the solubility in series [1] came out at 230 µg/mL (≈ 261 µM).

On to `CCCC[C@@H](C)C[C@@H](C)C(=O)N(C)[C@@H](Cc1ccc(OC)cc1)C(=O)N[C@H](C(=O)N(C)[C@H](C(=O)N1C[C@@H](O)C[C@H]1C(=O)N1C(=O)C=C[C@@H]1C)C(C)C)[C@@H](C)NC(=O)[C@@H](N)CCSC` [Compound 16f], for which, in the series with PANC-1 cells (setting [5]), the IC50 was 13.1 ± 6.3 nM. This compound also registered a solubility in series [1] of 170 µg/mL (≈ 189 µM).

On to `CCCC[C@@H](C)C[C@@H](C)C(=O)N(C)[C@@H](Cc1ccc(OC)cc1)C(=O)N[C@H](C(=O)N(C)[C@H](C(=O)N1C[C@@H](O)C[C@H]1C(=O)N1C(=O)C=C[C@@H]1C)C(C)C)[C@@H](C)NC(=O)CN` [Compound 16g], for which the IC50 with PANC-1 cells (setting [5]) turned out to be 43.1 ± 29.8 nM. In series [1], this compound came in with a solubility of 160 µg/mL (≈ 194 µM).

For `CCCC[C@@H](C)C[C@@H](C)C(=O)N(C)[C@@H](Cc1ccc(OC)cc1)C(=O)N[C@H](C(=O)N(C)[C@H](C(=O)N1C[C@@H](O)C[C@H]1C(=O)N1C(=O)C=C[C@@H]1C)C(C)C)[C@@H](C)NC(=O)[C@H](C)N` [Compound 16h], the IC50 in the series on PANC-1 cells (setting [5]) amounted to 79.9 ± 45.9 nM. In series [1], this compound registered a solubility of 360 µg/mL (≈ 429 µM).

`CCCC[C@@H](C)C[C@@H](C)C(=O)N(C)[C@@H](Cc1ccc(OC)cc1)C(=O)N[C@H](C(=O)N(C)[C@H](C(=O)N1C[C@@H](O)C[C@H]1C(=O)N1C(=O)C=C[C@@H]1C)C(C)C)[C@@H](C)NC(=O)[C@@H](N)CCC(N)=O` [Compound 16i]: in the series on PANC-1 cells (setting [5]), the IC50 was found to be 740 ± 713 nM. In series [1], this compound returned a solubility of 530 µg/mL (≈ 591 µM).

As to `CCCC[C@@H](C)C[C@@H](C)C(=O)N(C)[C@@H](Cc1ccc(OC)cc1)C(=O)N[C@H](C(=O)N(C)[C@H](C(=O)N1C[C@@H](O)C[C@H]1C(=O)N1C(=O)C=C[C@@H]1C)C(C)C)[C@@H](C)NC(=O)[C@@H](N)CO` [Compound 16j], in the series with PANC-1 cells (setting [5]), the IC50 turned out to be 184 ± 33.2 nM. The compound further displayed a solubility in series [1] of 360 µg/mL (≈ 421 µM).

Regarding `CCCC[C@@H](C)C[C@@H](C)C(=O)N(C)[C@@H](Cc1ccc(OC)cc1)C(=O)N[C@H](C(=O)N(C)[C@H](C(=O)N1C[C@@H](O)C[C@H]1C(=O)N1C(=O)C=C[C@@H]1C)C(C)C)[C@@H](C)NC(=O)C1CCC(=O)N1` (stereo partly shown) [Compound 16k], in the series on PANC-1 cells (setting [5]), the IC50 was determined as 472 ± 69.7 nM. For the same compound, the solubility in series [1] stood at 330 µg/mL (≈ 375 µM).

For the compound `CCCC[C@@H](C)C[C@@H](C)C(=O)N(C)[C@@H](Cc1ccc(OC)cc1)C(=O)N[C@H](C(=O)N(C)[C@H](C(=O)N1C[C@@H](O)C[C@H]1C(=O)N1C(=O)C=C[C@@H]1C)C(C)C)[C@@H](C)NC(=O)[C@@H](N)Cc1ccccc1` [Compound 16l], the IC50 with PANC-1 cells (setting [5]) came out at 55.4 ± 14.7 nM. The same compound returned a solubility in series [1] of 130 µg/mL (≈ 142 µM).

Turning to `CCCC[C@@H](C)C[C@@H](C)C(=O)N(C)[C@@H](Cc1ccc(OC)cc1)C(=O)N[C@H](C(=O)N(C)[C@H](C(=O)N1C[C@@H](O)C[C@H]1C(=O)N1C(=O)C=C[C@@H]1C)C(C)C)[C@@H](C)NC(=O)[C@@H](N)Cc1ccc(O)cc1` [Compound 16m], the IC50 in the series on PANC-1 cells (setting [5]) was 278 ± 14.9 nM. This compound showed a solubility in series [1] of 160 µg/mL (≈ 172 µM).

As for `Nc1ccn([C@@H]2O[C@H](CO)[C@@H](O)C2(F)F)c(=O)n1` [Gemcitabine, reference compound], in the series on PANC-1 xenograft tumor (calculated from tumor weight, day 24, 1a, 1c, 1n 5 mg/kg, gemcitabine 20 mg/kg i.v.), the “tumor inhibition rate (%)” value was 51.0%. Moreover, the tumor weight in the series with PANC-1 xenograft tumor (day 24, i.v. every other day, 1a, 1n 5 mg/kg, gemcitabine 20 mg/kg, mean ± SD) came to 0.548 ± 0.153 g. Further, the tumor volume in the series with PANC-1 xenograft tumor (mouse, in vivo) came to 561.1 ± 177.3 mm^3.

A word on the IC50: it is the midpoint of a concentration-inhibition curve. The term solubility denotes how much of the substance goes into solution per volume.
